Results from patent US11510869B2, “Medical devices including medicaments and methods of making and using same including enhancing comfort, enhancing drug penetration, and treatment of myopia” (priority 2010, dated 2022).
“Also recorded” adds a separate entry of the source. Where two headings read alike, the source gives them in different places. Values belong to the compound of their own block, whether it stands above or below them.

Legend:
myopia progression = conditions: cited from earlier work; for Control of myopia progression / Side effects: 0.01% atropine eye drops
[1] = at therapeutic doses; cited from earlier work
[2] = Ink testing of HA loaded ink; type: physicochemical
Method: Required amount of HA was directly added in an ink, followed by sonication for 15 minutes, thus providing HA in a polymer matrix.
In case of HA, which was HEMA monomer ink insoluble, its particulate form (without processing) is loaded in ink along with Tween 20, followed by sonication for 5 to 60 minutes.
The following table provides results of ink testing.

[3] = HA loaded ink, direct HA loading, 2% drug loading

Compound: CN1[C@@H]2CC[C@H]1C[C@@H](OC(=O)C(CO)c1ccccc1)C2 (stereo partly drawn) [Atropine]
Control of myopia progression (myopia progression): effective in reducing the progression of myopia | Side effects (myopia progression): cycloplegia; also recorded: Photophobia; also recorded: elevation of intraocular pressures; also recorded: Risk of angle closure glaucoma | Control of myopia progression (myopia progression; listed as atropine): ability to control the progress of myopia; also recorded: effective in controlling myopia progression | Side effects (myopia progression; listed as atropine): limited side effects; also recorded: minimal side effects | Effect of discontinuation of atropine treatment (myopia progression; in some cases): rebound of myopia progression | Progression of myopia (myopia progression; low dose atropine drops in combination with multifocal glasses): slow the progression of myopia

Compound: CCNC(=O)CCC/C=C\C[C@@H]1[C@@H](/C=C/[C@@H](O)CCc2ccccc2)[C@H](O)C[C@@H]1O [Bimatoprost]
Systemic or local toxicity [1]: minimal systemic or local toxicity

EST (mN/m) [2, 3]: 36.03 mN/m | Particle/globule size (nm) [2, 3]: 1227 nm | Viscosity (c.p.) [2, 3]: 12.6 c.p. | pH [2, 3]: 6 | Solubility in HEMA monomer ink ([2]; HEMA monomer ink): insoluble
Compound: Hyaluronic Acid [Hyaluronic Acid (HA)]
